Results from patent publication US20260297083A1, “SUBSTITUTED ACETYLENE COMPOUND DERIVATIVES AND THEIR PHARMACEUTICAL USE” (AVELOS THERAPEUTICS INC., priority 2023, published 2026).

Tested on: DLD-1 BRCA2(−/−) Cell
Assay: Cell viability assay (Resazurin) in DLD1-BRCA2 cells
Assay type: cell-based
Details: 14 days, 1,500 cells/well, final DMSO 1%
Protocol: DLD1-BRCA2 KG (Horizon Discovery, Cat #HD 105-007) cells and DLD1-parental cells were maintained in culture media (RPMI-1640 including 2 mM L-glutamin and 25 mM sodium bicarbonate, supplemented with 10% FBS), at 37° C. in a humidified atmosphere with 5% CO2. Cells were seeded at the final concentration of 1,500 cells/well (DLD1-BRCA2 KG) and 600 cells/well (DLD1-parental) in a 96-well plate. Four hours later, test compounds were added (the final concentration of DMSO was 1%) to the cells and media were replaced every 3-4 days for 14 days. To measure viability, cells were incubated in culture media supplemented with 0.1 mg/ml of Resazurin (Merck, Cat #R7017) for 4 hours. The fluorescence was measured at Ex/Em=560 nm/590 nm using EnSight multimode plate reader (Perkin Elmer). Data analysis and IC50 calculation was done using GraphPad Prism (Version 10.0.2).

Compound	IC50	IC50 (Homo sapiens, DLD-1, 336 h)
(S)-N-(3-(6-aminopyridazin-3-yl)prop-2-yn-1- yl)-2-(6-methyl-4-(trifluoromethyl)pyridin-2- yl)-N-(m-tolyl)isothiazolidine-3-carboxamide 1,1-dioxide [Example 19]	1100 to 5000 nM	–
Cc1cc(C(F)(F)F)cc(N2[C@H](C(=O)N(CC#Cc3ccc(C(N)=O)cn3)c3ccc(F)c(C)c3)CCS2(=O)=O)n1 [Example 97, (S)-N-(3-(5-carbamoylpyridin-2-yl)prop-2-yn-1-yl)-N-(4-fluoro-3-methylphenyl)-2-(6-methyl-4-(trifluoromethyl)pyridin-2-yl)isothiazolidine-3-carboxamide 1,1-dioxide]	–	< 1000 nM
Cc1cc(C(F)(F)F)cc(N2[C@H](C(=O)N(CC#Cc3cnc(N4CCOCC4)cn3)c3ccc(F)c(C)c3)CCS2(=O)=O)n1 [Example 39, (S)-N-(4-fluoro-3-methylphenyl)-2-(6-methyl-4-(trifluoromethyl)pyridin-2-yl)-N-(3-(5-orpholinopyrazin-2-yl)prop-2-yn-1-yl)isothiazolidine-3-carboxamide 1,1-dioxide]	–	< 1000 nM
CCN1CCN(c2cnc(C#CCN(C(=O)[C@@H]3CCC(=O)N3c3cc(C(F)(F)F)cc(C)n3)c3ccc(F)c(C)c3)cn2)CC1 [Example 11, (S)-N-(3-(5-(4-ethylpiperazin-1-yl)pyrazin-2-yl)prop-2-yn-1-yl)-N-(4-fluoro-3-methylphenyl)-1-(6-methyl-4-(trifluoromethyl)pyridin-2-yl)-5-oxopyrrolidine-2-carboxamide]	–	< 1000 nM
Cc1cc(C(F)(F)F)cc(N2[C@H](C(=O)N(CC#Cc3ccc(C(N)=O)cc3)c3ccc(F)c(C)c3)CCS2(=O)=O)n1 [Example 105, (S)-N-(3-(4-carbamoylphenyl)prop-2-yn-1-yl)-N-(4-fluoro-3-methylphenyl)-2-(6-methyl-4-(trifluoromethyl)pyridin-2-yl)isothiazolidine-3-carboxamide 1,1-dioxide]	–	1100 to 5000 nM
Cc1cc(C(F)(F)F)cc(N2[C@H](C(=O)N(CC#Cc3cccc(=O)[nH]3)c3ccc(F)c(C)c3)CCS2(=O)=O)n1 [Example 87, (S)-N-(4-fluoro-3-methylphenyl)-2-(6-methyl-4-(trifluoromethyl)pyridin-2-yl)-N-(3-(6-oxo-1,6-dihydropyridin-2-yl)prop-2-yn-1-yl)isothiazolidine-3-carboxamide 1,1-dioxide]	–	< 1000 nM
Cc1cc(C(F)(F)F)cc(N2[C@H](C(=O)N(CC#Cc3cc(C)c(F)c(C)n3)c3ccc(F)c(C)c3)CCS2(=O)=O)n1 [Example 90, (S)-N-(4-fluoro-3-methylphenyl)-N-(3-(5-fluoro-4,6-dimethylpyridin-2-yl)prop-2-yn-1-yl)-2-(6-methyl-4-(trifluoromethyl)pyridin-2-yl)isothiazolidine-3-carboxamide 1,1-dioxide]	–	1100 to 5000 nM
CCN1CCN(c2ccc(C#CCN(C(=O)[C@@H]3CCS(=O)(=O)N3c3cc(C(F)(F)F)cc(C)n3)c3ccc(F)c(C)c3)nn2)CC1 [Example 24, (S)-N-(3-(6-(4-ethylpiperazin-1-yl)pyridazin-3-yl)prop-2-yn-1-yl)-N-(4-fluoro-3-methylphenyl)-2-(6-methyl-4-(trifluoromethyl)pyridin-2-yl)isothiazolidine-3-carboxamide 1,1-dioxide]	–	< 1000 nM
Cc1cc(C(F)(F)F)cc(N2[C@H](C(=O)N(CC#Cc3cnc(C(=O)N(C)C)cn3)c3ccc(F)c(C)c3)CCS2(=O)=O)n1 [Example 68, (S)-N-(3-(5-(dimethylcarbamoyl)pyrazin-2-yl)prop-2-yn-1-yl)-N-(4-fluoro-3-methylphenyl)-2-(6-methyl-4-(trifluoromethyl)pyridin-2-yl)isothiazolidine-3-carboxamide 1,1-dioxide]	–	< 1000 nM
Cc1cc(C(F)(F)F)cc(N2[C@H](C(=O)N(CC#Cc3ccc(N4CCOCC4)nc3)c3ccc(F)c(C)c3)CCS2(=O)=O)n1 [Example 85, (S)-N-(4-fluoro-3-methylphenyl)-2-(6-methyl-4-(trifluoromethyl)pyridin-2-yl)-N-(3-(6-morpholinopyridin-3-yl)prop-2-yn-1-yl)isothiazolidine-3-carboxamide 1,1-dioxide]	–	< 1000 nM
Cc1cc(C(F)(F)F)cc(N2C(=O)CC[C@H]2C(=O)N(CC#Cc2cnc(N)cn2)c2ccc(F)c(C)c2)n1 [Example 6, (2S)-N-[3-(5-aminopyrazin-2-yl)prop-2-ynyl]-N-(4-fluoro-3-methyl-phenyl)-1-[6-methyl-4-(trifluoromethyl)-2-pyridyl]-5-oxo-pyrrolidine-2-carboxamide]	–	< 1000 nM
Cc1cc(C(F)(F)F)cc(N2[C@H](C(=O)N(CC#Cc3ccc(-c4ncon4)nc3)c3ccc(F)c(C)c3)CCS2(=O)=O)n1 [Example 116, (S)-N-(3-(6-(1,2,4-oxadiazol-3-yl)pyridin-3-vl)prop-2-yn-1-yl)-N-(4-fluoro-3-methylphenyl)-2-(6-methyl-4-(trifluoromethyl)pyridin-2-yl)isothiazolidine-3-carboxamide 1,1-dioxide]	–	< 1000 nM
Cc1cc(C(F)(F)F)cc(N2[C@H](C(=O)N(CC#Cc3cnc(N)cn3)c3ccc(F)c(C)c3F)CCS2(=O)=O)n1 [Example 17, (S)—N-(3-(5-aminopyrazin-2-yl)prop-2-yn-1-yl)-N-(2,4-difluoro-3-methylphenyl)-2-(6-methyl-4-(trifluoromethyl)pyridin-2-yl)isothiazolidine-3-carboxamide 1,1-dioxide]	–	< 1000 nM
Cc1cc(C(F)(F)F)cc(N2[C@H](C(=O)N(CC#Cc3cncc(S(N)(=O)=O)n3)c3ccc(F)c(C)c3)CCS2(=O)=O)n1 [Example 66, (S)-N-(4-fluoro-3-methylphenyl)-2-(6-methyl-4-(trifluoromethyl)pyridin-2-yl)-N-(3-(6-sulfamoylpyrazin-2-yl)prop-2-yn-1-yl)isothiazolidine-3-carboxamide 1,1-dioxide]	–	< 1000 nM
Cc1cc(C(F)(F)F)cc(N2[C@H](C(=O)N(CC#Cc3ncc(C(=O)N4CCOCC4)cn3)c3ccc(F)c(C)c3)CCS2(=O)=O)n1 [Example 82, (S)-N-(4-fluoro-3-methylphenyl)-2-(6-methyl-4-(trifluoromethyl)pyridin-2-yl)-N-(3-(5-(morpholine-4-carbonyl)pyrimidin-2-yl)prop-2-yn-1-yl)isothiazolidine-3-carboxamide 1,1-dioxide]	–	< 1000 nM
Cc1cc(C(F)(F)F)cc(N2[C@H](C(=O)N(CC#Cc3cnc(N4C[C@H](C)N(C(C)C)[C@@H](C)C4)cn3)c3ccc(F)c(C)c3)CCS2(=O)=O)n1 [Example 53, (S)-N-(4-fluoro-3-methylphenyl)-N-(3-(5-((3S,5S)-4-isopropyl-3,5-dimethylpiperazin-1-yl)pyrazin-2-yl)prop-2-yn-1-yl)-2-(6-methyl-4-(trifluoromethyl)pyridin-2-yl)isothiazolidine-3-carboxamide 1,1-dioxide]	–	< 1000 nM
Cc1ccc(F)c(N(CC#Cc2cnc(N)cn2)C(=O)[C@@H]2CCS(=O)(=O)N2c2cc(C(F)(F)F)cc(C)n2)c1 [Example 33, (S)-N-(3-(5-aminopyrazin-2-yl)prop-2-yn-1-yl)-N-(2-fluoro-5-methylphenyl)-2-(6-methyl-4-(trifluoromethyl)pyridin-2-yl)isothiazolidine-3-carboxamide 1,1-dioxide]	–	< 1000 nM
Cc1cc(C(F)(F)F)cc(N2[C@H](C(=O)N(CC#Cc3ccc(C#N)nc3)c3ccc(F)c(C)c3)CCS2(=O)=O)n1 [Example 115, (S)-N-(3-(6-cyanopyridin-3-yl)prop-2-yn-1-yl)-N-(4-fluoro-3-methylphenyl)-2-(6-methyl-4-(trifluoromethyl)pyridin-2-yl)isothiazolidine-3-carboxamide 1,1-dioxide]	–	< 1000 nM
Cc1cc(C(F)(F)F)cc(N2[C@@H](C(=O)N(CC#Cc3cnc(N)cn3)c3ccc(F)c(C)c3F)CCS2(=O)=O)n1 [Example 31, (R)-N-(3-(5-aminopyrazin-2-yl)prop-2-yn-1-yl)-N-(2,4-diffuoro-3-methylphenyl)-2-(6-methyl-4-(trifluoromethyl)pyridin-2-yl)isothiazolidine-3-carboxamide 1,1-dioxide]	–	> 5100 nM
Cc1cc(C(F)(F)F)cc(N2[C@H](C(=O)N(CC#Cc3ncc(N4CCOCC4)nc3N)c3ccc(F)c(C)c3)CCS2(=O)=O)n1 [Example 43]	–	1100 to 5000 nM
CNC(=O)c1cnc(C#CCN(C(=O)[C@@H]2CCS(=O)(=O)N2c2cc(C(F)(F)F)cc(C)n2)c2ccc(F)c(C)c2)cn1 [Example 67, (S)-N-(4-fluoro-3-methylphenyl)-2-(6-methyl-4-(trifluoromethyl)pyridin-2-yl)-N-(3-(5-(methylcarbamoyl)pyrazin-2-yl)prop-2-yn-1-yl)isothiazolidine-3-carboxamide 1,1-dioxide]	–	> 5100 nM
Cc1cc(C(F)(F)F)cc(N2[C@H](C(=O)N(CC#Cc3ccc(C(N)=O)nn3)c3ccc(F)c(C)c3)CCS2(=O)=O)n1 [Example 29]	–	< 1000 nM
Cc1cc(C(F)(F)F)cc(N2[C@H](C(=O)N(CC#Cc3cc(C)c(N)c(C)n3)c3ccc(F)c(C)c3)CCS2(=O)=O)n1 [Example 91, (S)-N-(3-(5-amino-4,6-dimethylpyridin-2-yl)prop-2-yn-1-yl)-N-(4-fluoro-3-methylphenyl)-2-(6-methyl-4-(trifluoromethyl)pyridin-2-yl)isothiazolidine-3-carboxamide 1,1-dioxide]	–	1100 to 5000 nM
